Reference: patent US20230085307A1, “PYRIDAZINONE COMPOUND AND HERBICIDE” (NISSAN CHEMICAL CORPORATION, priority 2019, published 2023)

test system: late watergrass; test: Test Example 1: herbicidal activity, application before weed generation under submerged conditions (Table 16, symbol A); assay type: in vivo, late watergrass (Echinochloa oryzicola); details: amount of applied herbicide 320 g/ha
In short: (§1)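 Emulsion formulation, water-diluted to set dose, was put onto the flooded surface (4 cm depth, alluvial soil) the same day weeds were sown and 2.5-leaf rice transplanted. After 3 weeks at 25-30 °C under glass, each species was rated 0 (≤5% kill) to 5 (≥90% kill).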

Row | Structure (SMILES) | Herbicidal effect, A: late watergrass
1 | CCCC(=O)Oc1c(C)nn(C)c(=O)c1-c1c(-c2ccc(Cl)cc2)sc2cc(Cl)ccc12 [3-034] | 3 (Herbicidal rate of 40% or more and less than 70%)
2 | CCOc1ccccc1-c1sc2cc(Cl)ccc2c1-c1c(O)c(C)nn(C)c1=O [3-039] | 2 (Herbicidal rate of 20% or more and less than 40%)
3 | CCCC(=O)Oc1c(C)nn(C)c(=O)c1-c1c(-c2ccccc2OCC)sc2cc(Cl)ccc12 [3-040] | 4 (Herbicidal rate of 70% or more and less than 90%)

test system: Japanese bulrush; test: Test Example 1: herbicidal activity, application before weed generation under submerged conditions (Table 16, symbol B); assay type: in vivo, Japanese bulrush (Schoenoplectus juncoides); details: amount of applied herbicide 320 g/ha
In short: as §1

Row | Structure (SMILES) | Herbicidal effect, B: Japanese bulrush
4 | CCCC(=O)Oc1c(C)nn(C)c(=O)c1-c1c(-c2ccc(Cl)cc2)sc2cc(Cl)ccc12 [3-034] | 3 (Herbicidal rate of 40% or more and less than 70%)
5 | CCOc1ccccc1-c1sc2cc(Cl)ccc2c1-c1c(O)c(C)nn(C)c1=O [3-039] | 1 (Herbicidal rate of 5% or more and less than 20%)
6 | CCCC(=O)Oc1c(C)nn(C)c(=O)c1-c1c(-c2ccccc2OCC)sc2cc(Cl)ccc12 [3-040] | 3 (Herbicidal rate of 40% or more and less than 70%)

test system: oval-leafed pondweed; test: Test Example 1: herbicidal activity, application before weed generation under submerged conditions (Table 16, symbol C); assay type: in vivo, oval-leafed pondweed (Monochoria vaginalis); details: amount of applied herbicide 320 g/ha
In short: as §1

Row | Structure (SMILES) | Herbicidal effect, C: oval-leafed pondweed
7 | CCCC(=O)Oc1c(C)nn(C)c(=O)c1-c1c(-c2ccc(Cl)cc2)sc2cc(Cl)ccc12 [3-034] | 3 (Herbicidal rate of 40% or more and less than 70%)
8 | CCOc1ccccc1-c1sc2cc(Cl)ccc2c1-c1c(O)c(C)nn(C)c1=O [3-039] | 0 (Herbicidal rate of 5% or less (almost no effect))
9 | CCCC(=O)Oc1c(C)nn(C)c(=O)c1-c1c(-c2ccccc2OCC)sc2cc(Cl)ccc12 [3-040] | 2 (Herbicidal rate of 20% or more and less than 40%)

test system: late watergrass; test: Test Example 2: herbicidal activity, application during weed generation under submerged conditions (Table 17, symbol A); assay type: in vivo, late watergrass (Echinochloa oryzicola); details: AAH 320 g/ha; application during weed generation, submerged conditions
In short: (§2)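 Effect on each weed is rated three weeks post-treatment, using the same scoring criteria as the preceding test. Plants grow from mixed-sown seed in flooded alluvial soil (4 cm water) at 25° C. to 30° C., and are treated at one to two leaves with diluted emulsion dropped onto the water.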

Row | Structure (SMILES) | herbicidal effect rating, A: late watergrass
10 | CCCC(=O)Oc1c(C)nn(C)c(=O)c1-c1c(-c2ccc(Cl)cc2)sc2cc(Cl)ccc12 [3-034] | 3 (Herbicidal rate of 40% or more and less than 70%)
11 | CCOc1ccccc1-c1sc2cc(Cl)ccc2c1-c1c(O)c(C)nn(C)c1=O [3-039] | 2 (Herbicidal rate of 20% or more and less than 40%)
12 | CCCC(=O)Oc1c(C)nn(C)c(=O)c1-c1c(-c2ccccc2OCC)sc2cc(Cl)ccc12 [3-040] | 2 (Herbicidal rate of 20% or more and less than 40%)

test system: oval-leafed pondweed; test: Test Example 2: herbicidal activity, application during weed generation under submerged conditions (Table 17, symbol C); assay type: in vivo, oval-leafed pondweed (Monochoria vaginalis); details: AAH 320 g/ha; application during weed generation, submerged conditions
In short: as §2

Row | Structure (SMILES) | herbicidal effect rating, C: oval-leafed pondweed
13 | CCCC(=O)Oc1c(C)nn(C)c(=O)c1-c1c(-c2ccc(Cl)cc2)sc2cc(Cl)ccc12 [3-034] | 0 (Herbicidal rate of 5% or less (almost no effect))
14 | CCOc1ccccc1-c1sc2cc(Cl)ccc2c1-c1c(O)c(C)nn(C)c1=O [3-039] | 0 (Herbicidal rate of 5% or less (almost no effect))
15 | CCCC(=O)Oc1c(C)nn(C)c(=O)c1-c1c(-c2ccccc2OCC)sc2cc(Cl)ccc12 [3-040] | 3 (Herbicidal rate of 40% or more and less than 70%)

test system: barnyard grass; test: Test Example 3: herbicidal effect by foliage application, Wagner pot (Table 18, symbol H); assay type: in vivo, barnyard grass (Echinochloa crus-galli); details: 320 g/ha
In short: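 Plants were sown in alluvial soil held under 0.1–0.5 cm standing water and grown 14 days in a greenhouse at 25–30 °C. An emulsifiable formulation, water-diluted to the set dose, was then sprayed onto the foliage, and effects were scored three weeks later using previously defined criteria.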

Row | Structure (SMILES) | herbicidal effect on barnyard grass (H)
16 | CCCC(=O)Oc1c(C)nn(C)c(=O)c1-c1c(-c2ccc(Cl)cc2)sc2cc(Cl)ccc12 [3-034] | 5 (Herbicidal rate of 90% or more (almost completely withered))
17 | CCOc1ccccc1-c1sc2cc(Cl)ccc2c1-c1c(O)c(C)nn(C)c1=O [3-039] | 4 (Herbicidal rate of 70% or more and less than 90%)
18 | CCCC(=O)Oc1c(C)nn(C)c(=O)c1-c1c(-c2ccccc2OCC)sc2cc(Cl)ccc12 [3-040] | 5 (Herbicidal rate of 90% or more (almost completely withered))

test system: southern crabgrass; test: Test Example 4: herbicidal effect by soil treatment (Table 19, symbol F); assay type: in vivo, southern crabgrass (Digitaria ciliaris); details: amount of applied herbicide 320 g/ha
In short: (§3)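 Seeds were sown in sterilized diluvial soil and covered with about 1.5 cm of soil. An emulsion formulation diluted with water to a predetermined herbicide amount was sprayed evenly onto the soil surface. Plants grew in a greenhouse at 25° C. to 30° C., and the effect was scored three weeks after application using criteria from an earlier test.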

Row | Structure (SMILES) | F: southern crabgrass, herbicidal effect grade
19 | CCCC(=O)Oc1c(C)nn(C)c(=O)c1-c1c(-c2ccc(Cl)cc2)sc2cc(Cl)ccc12 [3-034] | 0 (Herbicidal rate of 5% or less (almost no effect))
20 | CCOc1ccccc1-c1sc2cc(Cl)ccc2c1-c1c(O)c(C)nn(C)c1=O [3-039] | 5 (Herbicidal rate of 90% or more (almost completely withered))
21 | CCCC(=O)Oc1c(C)nn(C)c(=O)c1-c1c(-c2ccccc2OCC)sc2cc(Cl)ccc12 [3-040] | 1 (Herbicidal rate of 5% or more and less than 20%)

test system: wild oat; test: Test Example 4: herbicidal effect by soil treatment (Table 19, symbol I); assay type: in vivo, wild oat (Avena fatua); details: amount of applied herbicide 320 g/ha
In short: as §3

Row | Structure (SMILES) | I: wild oat, herbicidal effect grade
22 | CCCC(=O)Oc1c(C)nn(C)c(=O)c1-c1c(-c2ccc(Cl)cc2)sc2cc(Cl)ccc12 [3-034] | 0 (Herbicidal rate of 5% or less (almost no effect))
23 | CCOc1ccccc1-c1sc2cc(Cl)ccc2c1-c1c(O)c(C)nn(C)c1=O [3-039] | 0 (Herbicidal rate of 5% or less (almost no effect))
24 | CCCC(=O)Oc1c(C)nn(C)c(=O)c1-c1c(-c2ccccc2OCC)sc2cc(Cl)ccc12 [3-040] | 0 (Herbicidal rate of 5% or less (almost no effect))

test system: windgrass; test: Test Example 4: herbicidal effect by soil treatment (Table 19, symbol L); assay type: in vivo, windgrass (Apera spica-venti); details: amount of applied herbicide 320 g/ha
In short: as §3

Row | Structure (SMILES) | L: windgrass, herbicidal effect grade
25 | CCCC(=O)Oc1c(C)nn(C)c(=O)c1-c1c(-c2ccc(Cl)cc2)sc2cc(Cl)ccc12 [3-034] | 0 (Herbicidal rate of 5% or less (almost no effect))
26 | CCOc1ccccc1-c1sc2cc(Cl)ccc2c1-c1c(O)c(C)nn(C)c1=O [3-039] | 0 (Herbicidal rate of 5% or less (almost no effect))
27 | CCCC(=O)Oc1c(C)nn(C)c(=O)c1-c1c(-c2ccccc2OCC)sc2cc(Cl)ccc12 [3-040] | 5 (Herbicidal rate of 90% or more (almost completely withered))

test system: velvetleaf; test: Test Example 4: herbicidal effect by soil treatment (Table 19, symbol M); assay type: in vivo, velvetleaf (Abutilon theophrasti); details: amount of applied herbicide 320 g/ha
In short: as §3

Row | Structure (SMILES) | M: velvetleaf, herbicidal effect grade
28 | CCCC(=O)Oc1c(C)nn(C)c(=O)c1-c1c(-c2ccc(Cl)cc2)sc2cc(Cl)ccc12 [3-034] | 3 (Herbicidal rate of 40% or more and less than 70%)
29 | CCOc1ccccc1-c1sc2cc(Cl)ccc2c1-c1c(O)c(C)nn(C)c1=O [3-039] | 3 (Herbicidal rate of 40% or more and less than 70%)
30 | CCCC(=O)Oc1c(C)nn(C)c(=O)c1-c1c(-c2ccccc2OCC)sc2cc(Cl)ccc12 [3-040] | 3 (Herbicidal rate of 40% or more and less than 70%)

test system: redroot pigweed; test: Test Example 4: herbicidal effect by soil treatment (Table 19, symbol N); assay type: in vivo, redroot pigweed (Amaranthus retroflexus); details: amount of applied herbicide 320 g/ha
In short: as §3

Row | Structure (SMILES) | N: redroot pigweed, herbicidal effect grade
31 | CCCC(=O)Oc1c(C)nn(C)c(=O)c1-c1c(-c2ccc(Cl)cc2)sc2cc(Cl)ccc12 [3-034] | 3 (Herbicidal rate of 40% or more and less than 70%)
32 | CCOc1ccccc1-c1sc2cc(Cl)ccc2c1-c1c(O)c(C)nn(C)c1=O [3-039] | 4 (Herbicidal rate of 70% or more and less than 90%)
33 | CCCC(=O)Oc1c(C)nn(C)c(=O)c1-c1c(-c2ccccc2OCC)sc2cc(Cl)ccc12 [3-040] | 4 (Herbicidal rate of 70% or more and less than 90%)

test system: chickweed; test: Test Example 4: herbicidal effect by soil treatment (Table 19, symbol P); assay type: in vivo, common chickweed (Stellaria media); details: amount of applied herbicide 320 g/ha
In short: as §3

Row | Structure (SMILES) | P: chickweed, herbicidal effect grade
34 | CCCC(=O)Oc1c(C)nn(C)c(=O)c1-c1c(-c2ccc(Cl)cc2)sc2cc(Cl)ccc12 [3-034] | 3 (Herbicidal rate of 40% or more and less than 70%)
35 | CCOc1ccccc1-c1sc2cc(Cl)ccc2c1-c1c(O)c(C)nn(C)c1=O [3-039] | 5 (Herbicidal rate of 90% or more (almost completely withered))
36 | CCCC(=O)Oc1c(C)nn(C)c(=O)c1-c1c(-c2ccccc2OCC)sc2cc(Cl)ccc12 [3-040] | 4 (Herbicidal rate of 70% or more and less than 90%)

test system: persian speedwell; test: Test Example 4: herbicidal effect by soil treatment (Table 19, symbol R); assay type: in vivo, Persian speedwell (Veronica persica); details: amount of applied herbicide 320 g/ha
In short: as §3

Row | Structure (SMILES) | R: persian speedwell, herbicidal effect grade
37 | CCCC(=O)Oc1c(C)nn(C)c(=O)c1-c1c(-c2ccc(Cl)cc2)sc2cc(Cl)ccc12 [3-034] | 4 (Herbicidal rate of 70% or more and less than 90%)
38 | CCOc1ccccc1-c1sc2cc(Cl)ccc2c1-c1c(O)c(C)nn(C)c1=O [3-039] | 5 (Herbicidal rate of 90% or more (almost completely withered))
39 | CCCC(=O)Oc1c(C)nn(C)c(=O)c1-c1c(-c2ccccc2OCC)sc2cc(Cl)ccc12 [3-040] | 4 (Herbicidal rate of 70% or more and less than 90%)

test system: southern crabgrass; test: Test Example 5: herbicidal effect by foliage application, plastic box (Table 20, symbol F); assay type: in vivo, southern crabgrass (Digitaria ciliaris); details: foliage application, 320 g/ha, three weeks after application
In short: (§4)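 Plants sown in sterilized diluvial soil and grown 14 days in a greenhouse at 25° C to 30° C, then sprayed on the foliage with the compound's emulsion diluted in water to a predetermined herbicide amount. Injury to weeds and crops scored three weeks after application on a visual rating scale.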

Row | Structure (SMILES) | F: southern crabgrass, herbicidal effect grade
40 | CCCC(=O)Oc1c(C)nn(C)c(=O)c1-c1c(-c2ccc(Cl)cc2)sc2cc(Cl)ccc12 [3-034] | 3 (Herbicidal rate of 40% or more and less than 70%)
41 | CCOc1ccccc1-c1sc2cc(Cl)ccc2c1-c1c(O)c(C)nn(C)c1=O [3-039] | 5 (Herbicidal rate of 90% or more (almost completely withered))
42 | CCCC(=O)Oc1c(C)nn(C)c(=O)c1-c1c(-c2ccccc2OCC)sc2cc(Cl)ccc12 [3-040] | 4 (Herbicidal rate of 70% or more and less than 90%)

test system: green foxtail; test: Test Example 5: herbicidal effect by foliage application, plastic box (Table 20, symbol G); assay type: in vivo, green foxtail (Setaria viridis); details: foliage application, 320 g/ha, three weeks after application
In short: as §4

Row | Structure (SMILES) | G: green foxtail, herbicidal effect grade
43 | CCCC(=O)Oc1c(C)nn(C)c(=O)c1-c1c(-c2ccc(Cl)cc2)sc2cc(Cl)ccc12 [3-034] | 4 (Herbicidal rate of 70% or more and less than 90%)
44 | CCOc1ccccc1-c1sc2cc(Cl)ccc2c1-c1c(O)c(C)nn(C)c1=O [3-039] | 5 (Herbicidal rate of 90% or more (almost completely withered))
45 | CCCC(=O)Oc1c(C)nn(C)c(=O)c1-c1c(-c2ccccc2OCC)sc2cc(Cl)ccc12 [3-040] | 4 (Herbicidal rate of 70% or more and less than 90%)

test system: redroot pigweed; test: Test Example 5: herbicidal effect by foliage application, plastic box (Table 20, symbol N); assay type: in vivo, redroot pigweed (Amaranthus retroflexus); details: foliage application, 320 g/ha, three weeks after application
In short: as §4

Row | Structure (SMILES) | N: redroot pigweed, herbicidal effect grade
46 | CCCC(=O)Oc1c(C)nn(C)c(=O)c1-c1c(-c2ccc(Cl)cc2)sc2cc(Cl)ccc12 [3-034] | 4 (Herbicidal rate of 70% or more and less than 90%)
47 | CCOc1ccccc1-c1sc2cc(Cl)ccc2c1-c1c(O)c(C)nn(C)c1=O [3-039] | 4 (Herbicidal rate of 70% or more and less than 90%)
48 | CCCC(=O)Oc1c(C)nn(C)c(=O)c1-c1c(-c2ccccc2OCC)sc2cc(Cl)ccc12 [3-040] | 5 (Herbicidal rate of 90% or more (almost completely withered))
